Experimental data from patent publication US9211310B2, “Use of a Chinese medicine composition in preparing medicaments for treating secondary prevention of myocardial infarction” (TASLY PHARMACEUTICAL GROUP CO., LTD, priority 2010, dated 2015).

Tested on: patients after acute myocardial infarction
Test: Life quality, Seattle Angina Questionnaire (SAQ), same clinical trial
Format: in vivo, human
Conditions: PP
Description: 3508 patients who were in accordance with the diagnostic standards of AMI for 28 days to 2 years and differentiated as Qi deficiency and blood stagnation syndrome by TCM were studied. 0.5 g Chinese medicine composition prepared by the method of EXAMPLE 1 (Coded as QSYQ) was administrated half an hour after meal, 3 times per day.
There were 19 questions in the Seattle angina questionnaire (SAQ), including 5 parts: physical limitation (PL), anginal stability (AS), anginal frequency (AF), treatment satisfaction (TS) and disease perception (DP). After being given necessary explanation by doctors, the questions were answered independently by patients.
They included the overall survival time, angina pectoris score, TCM symptom score and life quality score, where angina pectoris score, TCM symptom score and life quality score were evaluated at randomization, in 1st, 3rd, 6th, 9th, 12th month after treatment and 18th month after follow-up.
All evaluation results of SAQ were described during the period of observation, and Wilcoxon rank sum test was used for inter-group comparison.
The evaluation results in the SAQ were depicted in different observations, and inter-group comparison was tested by Wilcoxon Rank-sum test.

## CC(=O)Oc1ccccc1C(=O)O [Control group, aspirine]
12 months after treatment
  SAQ Question 1-2 Severely limited, percent of patients: (0.00%)
  SAQ Question 1-2 Slightly limited, number of patients: 45
  SAQ Question 1-2 Slightly limited, percent of patients: (3.16%)
  SAQ Question 1-6: Mildly limited, patients (%): (13.45%)
  SAQ Question 1-6: Moderately limited, patients (%): (9.58%)
  SAQ Question 1-6: Not limited, patients (%): (42.39%)
  SAQ Question 1-6: Other reasons, patients (%): (0.92%)
  SAQ Question 1-6: Severely limited, patients (%): (1.76%)
  SAQ Question 1-6: Slightly limited, patients (%): (31.90%)
  SAQ Question 1-7: Mildly limited, patients (%): (20.24%)
  SAQ Question 1-7: Moderately limited, patients (%): (9.84%)
  SAQ Question 1-7: Not limited, patients (%): (21.81%)
  SAQ Question 1-7: Other limited, patients (%): (3.56%)
  SAQ Question 1-7: Severely limited, patients (%): (12.05%)
  SAQ Question 1-7: Slightly limited, patients (%): (32.50%)
  SAQ Question 1-8: Mildly limited, patients (%): (24.98%)
  SAQ Question 1-8: Moderately limited, patients (%): (12.17%)
  SAQ Question 1-8: Not limited, patients (%): (14.53%)
  SAQ Question 1-8: Other reasons, patients (%): (4.22%)
  SAQ Question 1-8: Severely limited, patients (%): (15.68%)
  SAQ Question 1-8: Slightly limited, patients (%): (28.42%)
Baseline
  8th question: Dissatisfied, patients (%): (0.87%)
  8th question: Highly satisfied, patients (%): (14.83%)
  8th question: Mostly dissatisfied, patients (%): (6.61%)
  8th question: Mostly satisfied, patients (%): (45.16%)
  8th question: Partly satisfied, patients (%): (32.53%)
  9th question: Few, patients (%): (20.91%)
  9th question: Mild, patients (%): (37.01%)
  9th question: Moderate, patients (%): (26.99%)
  9th question: Severe, patients (%): (3.34%)
  9th question: Uneffective, patients (%): (11.76%)
  10th question: Dissatisfied, patients (%): (25.25%)
  10th question: Highly satisfied, patients (%): (2.07%)
  10th question: Mostly dissatisfied, patients (%): (24.11%)
  10th question: Mostly satisfied, patients (%): (16.30%)
  10th question: Partly satisfied, patients (%): (32.26%)
  11th question: Continuously worried, patients (%): (9.21%)
  11th question: No worried, patients (%): (3.94%)
  11th question: Occasionally worried, patients (%): (41.32%)
  11th question: Often worried, patients (%): (25.10%)
  11th question: Seldom worried, patients (%): (20.43%)
  SAQ 4th question, 1-2 times per week: % of patients: (20.17%)
  SAQ 4th question, 1-2 times per week: number of patients: 301
  SAQ 4th question, 1-3 times per day: % of patients: (8.78%)
  SAQ 4th question, 1-3 times per day: number of patients: 131
  SAQ 4th question, <1 time per week: % of patients: (9.52%)
  SAQ 4th question, <1 time per week: number of patients: 142
  SAQ 4th question, Not used: % of patients: (43.16%)
  SAQ 4th question, Not used: number of patients: 644
  SAQ 4th question, ≧3 times per week: % of patients: (17.43%)
  SAQ 4th question, ≧3 times per week: number of patients: 260
  SAQ 4th question, ≧4 times per day: % of patients: (0.94%)
  SAQ 4th question, ≧4 times per day: number of patients: 14
  SAQ 5th question, Few: % of patients: (19.21%)
  SAQ 5th question, Few: number of patients: 287
  SAQ 5th question, Mild: % of patients: (31.26%)
  SAQ 5th question, Mild: number of patients: 467
  SAQ 5th question, Moderate: % of patients: (21.29%)
  SAQ 5th question, Moderate: number of patients: 318
  SAQ 5th question, None: % of patients: (22.02%)
  SAQ 5th question, None: number of patients: 329
  SAQ 5th question, Not medicated by doctors: % of patients: (3.01%)
  SAQ 5th question, Not medicated by doctors: number of patients: 45
  SAQ 5th question, Severe: % of patients: (3.21%)
  SAQ 5th question, Severe: number of patients: 48
  SAQ 6th question, Dissatisfied: % of patients: (1.14%)
  SAQ 6th question, Dissatisfied: number of patients: 17
  SAQ 6th question, Highly satisfied: % of patients: (14.90%)
  SAQ 6th question, Highly satisfied: number of patients: 223
  SAQ 6th question, Mostly dissatisfied: % of patients: (6.48%)
  SAQ 6th question, Mostly dissatisfied: number of patients: 97
  SAQ 6th question, Mostly satisfied: % of patients: (44.29%)
  SAQ 6th question, Mostly satisfied: number of patients: 663
  SAQ 6th question, Partly satisfied: % of patients: (33.20%)
  SAQ 6th question, Partly satisfied: number of patients: 497
  SAQ 7th question, Dissatisfied: % of patients: (0.33%)
  SAQ 7th question, Dissatisfied: number of patients: 5
